Reference: patent publication US11083714B2, “Selective anti-cancer agent effective for prevention and treatment” (Molecular International Research, Inc., priority 2018, dated 2021)
Entries after “also recorded” stand apart in the source; their conditions may differ. Like-named read-outs stand apart in the source and are kept apart here.

Experiments:
[1] = tested on: LnCap; test: Cell Proliferation (anti-cancer), LnCap; format: cell-based, human
Experimental: (§1) The primary goal of synthesizing de-ethylflavopereirine (compound 13-9-1) was to generate a different compound that still retains the anti-cancer cell activity of flavopereirine (compound 13-7-2). Comparison of the effects of the two compounds on proliferation of a variety of cancer cells confirmed that this goal was achieved. For example, the effect of de-ethylflavopereirine on two human breast cancer cell lines and two human prostate cancer cell lines were analyzed.

[2] = tested on: RPWE-1; test: Cell Proliferation (anti-cancer), RPWE-1; format: cell-based, human
Experimental: as §1

[3] = format: in vivo; conditions: for time of death of one mouse: male, scid/scid, beige/beige, 48 hr
Experimental: A study with synthetic compounds 13-7-2 (flavopereirine) and 13-9-1 (de-ethylflavopereirine) was conducted to compare the toxicity of the two compounds in animals. The compounds were dissolved in phosphate buffered saline for administration. Both compounds were injected IP in male immunodeficient (homozygous recessive scid/scid, beige/beige) mice.
Compound 13-7-2 was injected at a dose of 100 mg/kg, 150 mg/kg, and 200 mg/kg in mice divided in groups of two. […] One mouse injected with 150 mg/kg died at 6 hr whereas one mouse injected with 200 mg/kg dose died at 24 hr. One mouse injected with 100 mg/kg dose died at 48 hr.
Compound 13-9-1 was injected at a dose of 100 mg/kg, 150 mg/kg, and 200 mg/kg in mice divided in groups of two.

[4] = mouse, in vivo
Experimental: To estimate the maximum tolerated dose of compounds 13-7-2 and 13-9-1 in mice, both compounds were dissolved in PBS and given to SCID mice by oral gavage.
Compound 13-7-2 was administered at a dose of 100 mg/kg, 150 mg/kg, or 200 mg/kg. Each dose group consisted of three mice.
Compound 13-9-1 was administered at a dose of 100 mg/kg, 150 mg/kg, or 200 mg/kg by oral gavage (three mice per dose group).
In a separate dose finding/toxicity test with compound 13-9-1, three mice received escalating doses of 50 mg/kg/day for 3 days, 100 mg/kg/day for 7 days, 200 mg/kg/day for 7 days, and 300 mg/kg/day for 3 days, given by oral gavage. Mice were monitored closely for toxic signs.

[5] = tested on: MIA PaCa, PANC-1, AsPc, BxPc; test: Growth inhibition, gemcitabine alone or plus de-ethylflavopereirine; format: cell-based; conditions: four pancreatic cancer cell lines
[6] = Homo sapiens, after any period of treatment, read-out: Minimum Dose (IC50) needed to decrease growth 50% or greater versus control

## CCc1ccc2c3[nH]c4ccccc4c3cc[n+]2c1 [Compound 13-7-2, flavopereirine]
[1]
  Growth Inhibition: Yes
[1]; [6]
  IC50: 10 µM
[2]
  Growth Inhibition: Yes
[2]; [6]
  IC50: 10 µM
[3]; all doses tested (100, 150, 200 mg/kg)
  mice that died after IP injection: 50%
[3]; mouse, in vivo, ip, 100 mg/kg
  time of death of one mouse: 48 h
  adverse effects observed: swollen abdomen
[3]; mouse, in vivo, ip, 150 mg/kg
  time of death of one mouse: 6 h
[3]; mouse, in vivo, ip, 200 mg/kg
  time of death of one mouse: 24 h
[4]; SCID
  tolerated dose, oral administration: up to 100 mg/kg
[4]; SCID, po, 100 mg/kg, 48 hr
  adverse effects observed: No signs of distress were observed in the 100 mg/kg group of mice with the exception of bradycardia 15 min after the administration of the compound in one mouse
[4]; SCID, po, 150 mg/kg, 48 hr
  deaths: two mice died 15 min after administration of the compound and one mouse died 48 hr after administration of the compound
[4]; SCID, po, 200 mg/kg, 48 hr
  deaths: One mouse from this group died 24 hr after the administration of the compound
[4]; po, 200 mg/kg
  signs of distress: two mice exhibited signs of distress which included rapid breathing, bradycardia, shut eyes, and lethargy

## Nc1ccn([C@@H]2O[C@H](CO)[C@@H](O)C2(F)F)c(=O)n1 [gemcitabine]
[5]
  response of the cell lines to the drug alone: all four of the pancreatic cancer cell lines are resistant; also recorded: some resistance
